Reference: patent US10287251B2, “Pyrazole derivative or pharmaceutically acceptable salt thereof” (KISSEI PHARMACEUTICAL CO., LTD., priority 2015, dated 2019)

target: T1, TRPM8 (Rattus norvegicus, UniProt Q8R455); experiment: Confirmation test of inhibitory effects on icilin-induced wet-dog shakes; assay type: in vivo; conditions: female SD rats, oral dose 1 mg/kg, icilin 1 mg/kg i.p. 1 hour after dosing, shakes counted for 5 minutes
T1 construct: from tissue; host or cells: whole animal, female SD rats (in vivo)
T1 sequence (Q8R455 whole entry): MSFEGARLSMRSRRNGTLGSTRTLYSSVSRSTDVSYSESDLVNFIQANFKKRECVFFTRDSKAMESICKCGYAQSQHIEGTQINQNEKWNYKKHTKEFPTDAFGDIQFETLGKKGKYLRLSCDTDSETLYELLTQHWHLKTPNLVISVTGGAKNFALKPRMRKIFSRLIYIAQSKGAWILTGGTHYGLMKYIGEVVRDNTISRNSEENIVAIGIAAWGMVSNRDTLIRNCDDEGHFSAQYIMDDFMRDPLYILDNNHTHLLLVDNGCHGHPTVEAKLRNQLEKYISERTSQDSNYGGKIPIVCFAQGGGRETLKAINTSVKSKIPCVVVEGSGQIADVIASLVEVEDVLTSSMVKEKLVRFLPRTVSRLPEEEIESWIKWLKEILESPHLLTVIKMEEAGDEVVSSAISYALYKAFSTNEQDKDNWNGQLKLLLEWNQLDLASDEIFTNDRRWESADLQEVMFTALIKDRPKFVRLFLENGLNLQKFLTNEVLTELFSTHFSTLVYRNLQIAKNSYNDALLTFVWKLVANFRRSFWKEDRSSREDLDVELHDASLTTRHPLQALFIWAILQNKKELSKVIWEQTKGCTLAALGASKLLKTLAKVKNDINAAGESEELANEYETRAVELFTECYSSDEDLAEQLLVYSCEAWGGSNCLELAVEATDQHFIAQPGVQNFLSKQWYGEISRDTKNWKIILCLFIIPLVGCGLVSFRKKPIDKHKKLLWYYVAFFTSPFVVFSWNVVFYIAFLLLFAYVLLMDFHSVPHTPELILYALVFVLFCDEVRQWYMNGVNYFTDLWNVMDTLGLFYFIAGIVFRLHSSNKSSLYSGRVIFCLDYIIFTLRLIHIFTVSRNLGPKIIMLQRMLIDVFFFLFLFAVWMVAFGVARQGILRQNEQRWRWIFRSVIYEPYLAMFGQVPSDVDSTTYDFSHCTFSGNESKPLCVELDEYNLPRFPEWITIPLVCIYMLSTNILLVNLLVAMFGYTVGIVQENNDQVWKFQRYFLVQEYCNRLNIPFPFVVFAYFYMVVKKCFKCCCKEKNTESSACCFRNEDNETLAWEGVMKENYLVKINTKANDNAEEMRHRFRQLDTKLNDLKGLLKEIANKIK
Excerpt: Further, TRPM8 inhibitory activity can be evaluated by the efficacy inhibiting the wet-dog shake action which is induced by the administration of Icilin, TRPM8 agonist. Furthermore, an effect on overactive bladder (OAB) can be evaluated by an elongation of micturition interval against overactive bladder induced by acetic acid in accordance with a similar method described in J. Urol., 2001, 166, 1142.
Confirmation Test of Inhibitory Effects on Icilin-induced Wet-dog Shakes
Test compounds were dissolved in dimethylacetamide (wako), and 0.5% methylcellulose solution (wako) was added to make the solution or suspension containing 5% of dimethylacetatnide. At a dose of 0.3 to 10 mg/kg/5mL of test compounds were orally administered to female SD rats. After 1 hour, wet-dog shakes were induced by the intraperitoneal injection of icilin (1 mg/kg) which was dissolved in polyethylene glycol 400 (wako). From 5 minutes after the administration of icilin, wet-dog shakes were counted for 5 minutes. For control example, vehicle (a mixture of dimethylacetamide (wako): 0.5% methylcellulose (wako)=5:95) was administrated similarly, and the number of wet-dog shakes was counted in the same manner. A percent inhibition of wet-dog shakes by test compound was calculated from the following formula: [1-(test compound wet-dog shake count/vehicle wet-dog shake count)]×100.

Row | Structure (SMILES) | % inhibition of Wet-Dog Shake [%]
1 | CO[C@H](CO)[C@@H](Cc1ncccn1)NC(=O)c1cccc(F)c1-c1cc(-c2ccc(Cl)cc2)[nH]n1 [Example 1-242] | 73
2 | CO[C@H](CO)[C@@H](Cc1cscn1)NC(=O)c1cccc(F)c1-c1cc(-c2ccc(F)cc2)[nH]n1 [Example 27-21] | 32
3 | O=C(N[C@H](Cn1cccn1)[C@H](O)CF)c1cccc(F)c1-c1cc(-c2ccc(F)cc2)[nH]n1 [Example 1-245] | 55
4 | COC[C@@H](O)[C@@H](Cn1nccn1)NC(=O)c1cccc(F)c1-c1cc(-c2ccc(F)cc2)[nH]n1 [Example 60-1] | 92
5 | CO[C@H](CO)[C@@H](Cc1ccccn1)NC(=O)c1cccc(F)c1-c1n[nH]c(-c2ccc(F)cc2)c1F [Example 43-14] | 100
6 | COC[C@@H](O)[C@@H](Cc1ccccn1)NC(=O)c1cccc(F)c1-c1n[nH]c(-c2ccc(F)cc2)c1F [Example 1-213] | 68
7 | O=C(N[C@@H](CCO)Cc1ccccn1)c1cccc(F)c1-c1n[nH]c(-c2ccc(F)cc2)c1F [Example 28-1, 3-Fluoro-2-[4-fluoro-5-(4-fluorophenyl)-1H-pyrazol-3-yl]-N-[(2R)-4-hydroxy-1-(pyridin-2-yl)butan-2-yl]benzamide] | 62
8 | CO[C@H](CO)[C@@H](Cc1ccccn1)NC(=O)c1ccccc1-c1n[nH]c(-c2ccc(Cl)cc2)c1F [Example 43-18] | 85
9 | O=C(N[C@H](Cc1ccccn1)C(F)(F)CO)c1cccc(F)c1-c1cc(-c2ccc(F)cc2)[nH]n1 [Example 50-5] | 100

same assay, conditions: female SD rats, oral dose 3 mg/kg, icilin 1 mg/kg i.p. 1 hour after dosing, shakes counted for 5 minutes

Row | Structure (SMILES) | % inhibition of Wet-Dog Shake [%]
10 | O=C(N[C@@H](CO)Cc1ccccc1)c1cccc(F)c1-c1cc(-c2ccccc2)[nH]n1 [Example 1-68] | 41
11 | COC(c1ccccn1)[C@H](CO)NC(=O)c1cccc(F)c1-c1cc(-c2ccc(F)cc2)[nH]n1 (stereo partly drawn) [Example 43-11] | 88
12 | O=C(N[C@H](Cc1ncccn1)C(F)(F)CO)c1cccc(F)c1-c1cc(-c2ccc(F)cc2)[nH]n1 [Example 50-4] | 100
13 | CO[C@@H](CO)[C@@H](Cc1ccccn1)NC(=O)c1cccc(F)c1-c1cc(-c2ccc(F)cc2)[nH]n1 [Example 43-2] | 100
14 | COc1cccnc1C[C@H](CCO)NC(=O)c1cccc(F)c1-c1cc(-c2ccc(F)cc2)[nH]n1 [Example 1-108] | 61
15 | O=C(N[C@@H](CO)C(O)c1ccccn1)c1cccc(F)c1-c1cc(-c2ccc(F)cc2)[nH]n1 (single isomer, unassigned) [Example 54-2] | 48
16 | O=C(N[C@@H](CO)Cc1ccccn1)c1cccc(F)c1-c1cc(-c2ccc(Cl)cc2)[nH]n1 [Example 1-137] | 84
17 | O=C(NC(CCO)Cc1ccccn1)c1cccc(F)c1-c1cc(-c2ccc(F)cc2)[nH]n1 (stereo not drawn) [Example 26-1, 3-Fluoro-2-[5-(4-fluorophenyl)-1H-pyrazol-3-yl]-N-[4-hydroxy-1-(pyridin-2-yl)butan-2-yl]benzamide] | 89
18 | CC(c1ccccn1)[C@H](CCO)NC(=O)c1cccc(F)c1-c1cc(-c2ccc(F)cc2)[nH]n1 (stereo partly drawn) [Example 1-138] | 100
19 | CC(O)[C@@H](Cc1ccccn1)NC(=O)c1cccc(F)c1-c1cc(-c2ccc(F)cc2)[nH]n1 (stereo partly drawn) [Example 1-124] | 42
20 | C[C@](O)(CO)[C@@H](Cc1ccccn1)NC(=O)c1cccc(F)c1-c1cc(-c2ccc(Cl)cc2)[nH]n1 [Example 1-219] | 45
21 | CC(CO)[C@@H](Cc1ccccn1)NC(=O)c1cccc(F)c1-c1cc(-c2ccc(Cl)cc2)[nH]n1 (stereo partly drawn) [Example 1-162] | 48
22 | O=C(N[C@@H](CO)C(O)c1ccccn1)c1cccc(Cl)c1-c1cc(-c2ccc(F)cc2)[nH]n1 (stereo partly drawn) [Example 1-210] | 47
23 | CO[C@H](CO)[C@@H](Cc1ncccc1C#N)NC(=O)c1cccc(F)c1-c1cc(-c2ccc(F)cc2)[nH]n1 [Example 27-16] | 56
24 | CC(C)(O)[C@@H](Cc1ccccn1)NC(=O)c1cccc(F)c1-c1cc(-c2ccc(F)cc2)[nH]n1 [Example 33-1, 3-Fluoro-2-[-5-(4-fluorophenyl)-1H-pyrazol-3-yl]-N-[(2R)-3-hydroxy-3-methyl-1-(pyridin-2-yl)butan-2-yl]benzamide] | 100
25 | O=C(N[C@@H](CO)C(O)c1ccccn1)c1ccccc1-c1n[nH]c(-c2ccc(F)cc2)c1F (stereo partly drawn) [Example 1-205] | 70
26 | O=C(N[C@H](Cn1cccn1)[C@@H](O)CF)c1cccc(F)c1-c1cc(-c2ccc(F)cc2)[nH]n1 [Example 50-8] | 82
27 | CCOC(c1ccccn1)[C@H](CO)NC(=O)c1cccc(F)c1-c1cc(-c2ccc(F)cc2)[nH]n1 (stereo partly drawn) [Example 43-22] | 98

Row | Structure (SMILES) | % inhibition of Wet-Dog Shake [%]
28 | O=C(N[C@H](Cc1ccccn1)[C@H](O)CO)c1cccc(F)c1-c1n[nH]c(-c2ccc(F)cc2)c1F [Example 1-156] | 99
29 | O=C(NCC(O)c1ccccn1)c1cccc(F)c1-c1cc(-c2ccc(F)cc2)[nH]n1 (stereo not drawn) [Example 1-194] | 60
30 | O=C(N[C@H](Cn1cccn1)[C@H](F)CO)c1cccc(Cl)c1-c1cc(-c2ccc(F)cc2)[nH]n1 [Example 43-45] | 40
31 | O=C(N[C@@H](CO)Cc1ccccn1)c1cccc(F)c1-c1n[nH]c(-c2ccc(F)cc2)c1F [Example 1-105] | 90
32 | O=C(N[C@H](Cc1ccccn1)[C@@H](O)CO)c1cccc(F)c1-c1n[nH]c(-c2ccc(F)cc2)c1F [Example 54-9] | 40
33 | O=C(N[C@H](Cn1cccn1)[C@@H](F)CO)c1cccc(F)c1-c1cc(-c2ccc(F)cc2)[nH]n1 [Example 50-11] | 100
34 | C[C@](CCO)(Cc1ccccn1)NC(=O)c1cccc(F)c1-c1cc(-c2ccc(F)cc2)[nH]n1 [Example 24-4] | 31
35 | O=C(N[C@@H](CO)Cc1ccccn1)c1cccc(Cl)c1-c1cc(-c2ccc(F)cc2)[nH]n1 [Example 1-103] | 45
36 | O=C1N[C@@H]([C@@H](Cc2ccccn2)NC(=O)c2cccc(F)c2-c2cc(-c3ccc(F)cc3)[nH]n2)CO1 [Example 47-1, 3-Fluoro-2-[5-(4-fluorophenyl)-1H-pyrazol-3-yl]-N-[(1R)-1-((4S)-2-oxo-1,3-oxazolidin-4-yl)-2-(pyridin-2-yl)ethyl]benzamide] | 48
37 | CC(c1ccccn1)[C@@H](NC(=O)c1cccc(F)c1-c1cc(-c2ccc(F)cc2)[nH]n1)[C@H](O)CO (stereo partly drawn) [Example 54-14] | 77
38 | CO[C@H](CO)[C@@H](Cn1cc(Cl)cn1)NC(=O)c1cccc(F)c1-c1cc(-c2ccc(F)cc2)[nH]n1 [Example 27-29] | 47
39 | COc1cccnc1C[C@H](CO)NC(=O)c1cccc(F)c1-c1cc(-c2ccc(F)cc2)[nH]n1 [Example 1-196] | 63
40 | CC(O)(c1ccccn1)[C@H](CO)NC(=O)c1cccc(F)c1-c1cc(-c2ccc(F)cc2)[nH]n1 (stereo partly drawn) [Example 1-241] | 100
41 | CO[C@H](CO)[C@@H](Cc1ccccn1)NC(=O)c1cccc(Cl)c1-c1cc(-c2ccc(F)cc2)[nH]n1 [Example 43-4] | 77
42 | C[C@@](CO)(Cc1ccccn1)NC(=O)c1cccc(F)c1-c1cc(-c2ccc(F)cc2)[nH]n1 [Example 36-2] | 72
43 | COC(c1ccccn1)[C@H](CO)NC(=O)c1ccccc1-c1n[nH]c(-c2ccc(F)cc2)c1F (stereo partly drawn) [Example 43-17] | 78
44 | CO[C@@H](CO)[C@@H](Cn1cccn1)NC(=O)c1cccc(F)c1-c1cc(-c2ccc(F)cc2)[nH]n1 [Example 27-17] | 86
45 | O=C1OC[C@H]([C@@H](Cc2ccccn2)NC(=O)c2cccc(F)c2-c2cc(-c3ccc(F)cc3)[nH]n2)O1 [Example 47-2] | 78

same assay, conditions: female SD rats, oral dose 10 mg/kg, icilin 1 mg/kg i.p. 1 hour after dosing, shakes counted for 5 minutes

Row | Structure (SMILES) | % inhibition of Wet-Dog Shake [%]
46 | NC[C@@H](Cc1ccccn1)NC(=O)c1ccccc1-c1cc(-c2ccc(F)c(F)c2)[nH]n1 [Example 16-11] | 51
47 | NC(=O)C[C@@H](Cc1ccccc1)NC(=O)c1ccccc1-c1cc(-c2ccc(F)cc2)[nH]n1 [Example 1-77] | 59
48 | NC(=O)C[C@@H](Cc1ccccc1)NC(=O)c1cccc(F)c1-c1cc(-c2ccc(F)cc2)[nH]n1 [Example 1-128] | 59
